Our source for the IC50 values is patent US10906888B2, “Pyrimidine carboxamides as inhibitors of Vanin-1 enzyme” (Pfizer Inc., priority 2016, dated 2021).

As usually defined, the IC50 is the concentration at which inhibition is half-maximal. Lower therefore signals greater potency in that assay.

The structures appear in SMILES notation. Some results are limits rather than exact numbers.

Sequence of human vanin-1 (O95497 22-491): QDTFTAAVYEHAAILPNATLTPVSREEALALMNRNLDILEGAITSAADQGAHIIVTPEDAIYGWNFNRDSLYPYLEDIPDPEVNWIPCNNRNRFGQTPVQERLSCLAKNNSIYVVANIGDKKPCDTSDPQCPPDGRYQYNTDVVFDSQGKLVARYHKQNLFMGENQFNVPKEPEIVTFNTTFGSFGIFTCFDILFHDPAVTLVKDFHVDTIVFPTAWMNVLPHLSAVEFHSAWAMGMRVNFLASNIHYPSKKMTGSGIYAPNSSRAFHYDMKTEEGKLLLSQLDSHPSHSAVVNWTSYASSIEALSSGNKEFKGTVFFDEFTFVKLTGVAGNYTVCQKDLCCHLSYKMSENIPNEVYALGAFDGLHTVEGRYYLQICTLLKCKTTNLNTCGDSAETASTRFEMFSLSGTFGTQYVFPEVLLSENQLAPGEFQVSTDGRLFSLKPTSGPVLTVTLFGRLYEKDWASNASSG

The target in the test is human vanin-1 (Homo sapiens (Human), UniProt O95497). In words: Human Vanin-1 Enzyme Assay 1. The test is classed as biochemical. The settings on record: 25 pM human vanin-1, 50 uM pantetheine 7-amino-4-trifluoromethylcoumarin substrate. The protocol:
Human Vanin-1Enzyme Assay 1.
The in vitro assay measures enzymatic cleavage of the fluorescently-labeled vanin substrate, pantetheine 7-amino-4-trifluoromethylcoumarin, by human vanin-1.
The vanin-1 protein was prepared in-house from a construct expressing the extracellular domain of human vanin-1 (GenBank ID NM_004666) preceded N-terminally by the honey bee melittin signal peptide, a GSG linker sequence, a His6× tag and a FLAG tag. The secreted, soluble enzyme was purified from the conditioned medium from a CHO cell line stably expressing the resulting protein. Enzyme purification was performed through sequential Ni NTA and size-exclusion chromatography steps.
Intermediate concentrations were prepared by diluting in DMSO in a four-fold series for a total of 11 data points.
To begin the assay 100 nL was transferred from the compound plate to the assay plate. Next, 15 μL of the vanin-1 working solution were transferred to the assay plate. The inhibitor and enzyme were incubated at room temperature for 30 minutes. The enzyme reaction was then initiated by the addition of 5 μL of 200 μM pantetheine 7-amino-4-trifluoromethylcoumarin prepared in assay buffer. […] The final concentration of DMSO was 0.5%.
On to `COCC1CCCN(C(=O)c2cnc(NC3(c4cncnc4)CC3)nc2)C1` (stereo not drawn) [Example 71], for which the midpoint of inhibition, the IC50, lay at 5.41 nM.

`CC(C)[C@H]1C[C@H](O)CN(C(=O)c2cnc(NC3(c4cncnc4)CC3)nc2)C1` [Example 72] displayed an IC50 of 148 nM.

For the compound `O=C(c1cnc(NC2(c3cncnc3)CC2)nc1)N1CCCC1C(F)(F)F` (stereo not drawn) [Example 73], half-maximal inhibition (IC50) required 829 nM.

As to `O=C(c1cnc(NC2(c3cncnc3)CC2)nc1)N1CCCC(C(F)(F)F)C1` (stereo not drawn) [Example 74], the IC50 came to 3.62 nM.

Compound `CN1CC2(COCCN(C(=O)c3cnc(NC4(c5cncnc5)CC4)nc3)C2)OC1=O` (stereo not drawn) [Example 75] displayed a concentration for half-maximal inhibition (IC50) of 1080 nM.

Compound `C[C@@H]1CCCN1C(=O)c1cnc(NC2(c3cncnc3)CC2)nc1` [Example 76] displayed a 50% inhibitory concentration (IC50) of 122 nM.

As for `O=C(c1cnc(NC2(c3cncnc3)CC2)nc1)N1CCC[C@@]2(CCCC[C@@H]2O)C1` [Example 77], the IC50 stood at 31.3 nM.

In turn, `CC(C)(O)C1CCN(C(=O)c2cnc(NC3(c4cncnc4)CC3)nc2)CC1` [Example 78] returned a 50% inhibitory concentration (IC50) of 1600 nM.

Regarding `CO[C@@H]1CCN(C(=O)c2cnc(NC3(c4cncnc4)CC3)nc2)C1` [Example 79], the concentration for half-maximal inhibition (IC50) was determined as 21.3 nM.

Compound `O=C(c1cnc(NC2(c3cncnc3)CC2)nc1)N1CCCC[C@H]1CCO` [Example 80] came in with a half-inhibitory concentration (IC50) of 545 nM.

Compound `O=C(c1cnc(NC2(c3cncnc3)CC2)nc1)N1CCC(C(F)F)CC1` [Example 81] displayed a concentration for half-maximal inhibition (IC50) of 102 nM.

The compound `O=C(c1cnc(NC2(c3cncnc3)CC2)nc1)N1CCCC[C@@H]1CO` [Example 82] gave a concentration for half-maximal inhibition (IC50) of 147 nM.

On to `CC1(CO)CCN(C(=O)c2cnc(NC3(c4cncnc4)CC3)nc2)CC1` [Example 83], for which inhibition was half-maximal at 55.1 nM (IC50).

Consider `CO[C@@H]1CN(C(=O)c2cnc(NC3(c4cncnc4)CC3)nc2)C[C@H]1F` [Example 84], for which the IC50 was determined as 75.4 nM.

The compound `COCC1COCCN(C(=O)c2cnc(NC3(c4cncnc4)CC3)nc2)C1` (stereo not drawn) [Example 85] had a half-maximal inhibitory concentration (IC50) of 167 nM.

`C[C@H]1C[C@@H](O)CN(C(=O)c2cnc(NC3(c4cncnc4)CC3)nc2)C1` [Example 86] gave a 50% inhibitory concentration (IC50) of 24.2 nM.

Take `O=C(c1cnc(NC2(c3cncnc3)CC2)nc1)N1C[C@H](O)C[C@H](C2CC2)C1` [Example 88]: the half-maximal inhibitory concentration (IC50) worked out at 28.7 nM.

`O=C(c1cnc(NC2(c3cncnc3)CC2)nc1)N1C[C@H](O)C[C@H](C(F)(F)F)C1` [Example 89] yielded a 50% inhibitory concentration (IC50) of 35 nM.

Regarding `O=C(c1cnc(NC2(c3cncnc3)CC2)nc1)N1CCC(O)(C(F)(F)F)CC1` [Example 90], half-maximal inhibition (IC50) was put at 348 nM.

With `COC1CCOC2(CCN(C(=O)c3cnc(NC4(c5cncnc5)CC4)nc3)CC2)C1` (stereo not drawn) [Example 91], the 50% inhibitory concentration (IC50) was 316 nM.

With `CCOCC1(F)CCN(C(=O)c2cnc(NC3(c4cncnc4)CC3)nc2)CC1` [Example 92], the midpoint of inhibition, the IC50, lay at 50.9 nM.

With `O=C(c1cnc(NC2(c3cncnc3)CC2)nc1)N1CCCC(F)C1` (stereo not drawn) [Example 93], the half-maximal inhibitory concentration (IC50) was 40.5 nM.

In turn, `O=C(c1cnc(NC2(c3cncnc3)CC2)nc1)N1CCC(O)C(C(F)(F)F)C1` (stereo not drawn) [Example 94] registered an IC50 of 20.4 nM.

The compound `CCC1(CO)CCN(C(=O)c2cnc(NC3(c4cncnc4)CC3)nc2)CC1` [Example 95] yielded an IC50 of 30.1 nM.

In turn, `O=C(c1cnc(NC2(c3cncnc3)CC2)nc1)N1C2CCC1COC2` [Example 97] displayed an IC50 of 345 nM.

The compound `O=C(c1cnc(NC2(c3cncnc3)CC2)nc1)N1CCC(F)(F)CC1` [Example 98] yielded a 50% inhibitory concentration (IC50) of 5.66 nM.

Compound `C[C@@H]1CN(C(=O)c2cnc(NC3(c4cncnc4)CC3)nc2)CCO1` [Example 99] returned an IC50 of 591 nM.

Consider `O=C(c1cnc(NC2(c3cncnc3)CC2)nc1)N1CCCC2(CCCC[C@H]2O)C1` (stereo partly drawn) [Example 100], for which the midpoint of inhibition, the IC50, lay at 135 nM.

With `O=C(c1cnc(NC2(c3cncnc3)CC2)nc1)N1CCC(C2(O)CCCC2)CC1` [Example 101], the IC50 stood at 1360 nM.

`O=C(c1cnc(NC2(c3cncnc3)CC2)nc1)N1CC2(CC(O)C2)C1` [Example 102]: the 50% inhibitory concentration (IC50) came out at 40.8 nM.

Compound `C[C@@H]1COCCN1C(=O)c1cnc(NC2(c3cncnc3)CC2)nc1` [Example 103] came in with an IC50 of 590 nM.

Regarding `CCOC1CCCN(C(=O)c2cnc(NC3(c4cncnc4)CC3)nc2)C1` (stereo not drawn) [Example 104], half-maximal inhibition (IC50) was put at 2.45 nM.

The compound `O=C(c1cnc(NC2(c3cncnc3)CC2)nc1)N1CC2CCC1CO2` (stereo not drawn) [Example 105] returned a half-inhibitory concentration (IC50) of 36 nM.

On to `O=C(c1cnc(NC2(c3cncnc3)CC2)nc1)N1CCCC(CO)C1` (stereo not drawn) [Example 106], for which half-maximal inhibition (IC50) was put at 30.8 nM.

Turning to `C[C@H]1CN(C(=O)c2cnc(NC3(c4cncnc4)CC3)nc2)CCO1` [Example 107], the IC50 stood at 38.6 nM.

In turn, `O=C(c1cnc(NC2(c3cncnc3)CC2)nc1)N1CCOCC1` [Example 109] showed a concentration for half-maximal inhibition (IC50) of 249 nM.

The compound `O=C(c1cnc(NCc2cnccn2)nc1)N1CCN2C[C@@H](F)C[C@H]2C1` [Example 110] showed an IC50 of 171 nM.

With `O=C(c1cnc(NCc2cnccn2)nc1)N1CCN2C[C@H](O)C[C@H]2C1` [Example 111], the IC50 stood at 3590 nM.

`CN1C[C@@H]2C[C@H]1CN2C(=O)c1cnc(NCc2cnccn2)nc1` [Example 112] registered an IC50 above 18900 nM.

Consider `C[C@H](Nc1ncc(C(=O)N2C[C@H](O)[C@@H](N3CCOCC3)C2)cn1)c1cnccn1` [Example 113], for which 508 nM corresponded to half-maximal inhibition (IC50).

Compound `C[C@H](Nc1ncc(C(=O)N2CCN3CCC[C@@H]3C2)cn1)c1cnccn1` [Example 114] came in with a half-inhibitory concentration (IC50) of 20.9 nM.

`O=C(c1cnc(NCc2cnccn2)nc1)N1C[C@H](O)[C@@H](N2CCOCC2)C1` [Example 115] displayed a concentration for half-maximal inhibition (IC50) of 16000 nM.

`O=C(c1cnc(NCc2cnccn2)nc1)N1CCN2CC(F)(F)C[C@H]2C1` [Example 116] gave an IC50 of 113 nM.

Compound `CCN1CCC2(CCN(C(=O)c3cnc(N[C@@H](C)c4cnccn4)nc3)C2)C1` (stereo partly drawn) [Example 117] had an IC50 of 5.11 nM.

For `C[C@H](Nc1ncc(C(=O)N2CCN3CC(F)(F)C[C@H]3C2)cn1)c1cnccn1` [Example 118], the midpoint of inhibition, the IC50, lay at 4.64 nM.

Take `CN1CC2(CCN(C(=O)c3cnc(NCc4cnccn4)nc3)C2)C1` [Example 119]: the IC50 amounted to 1370 nM.

`C[C@H](Nc1ncc(C(=O)N2CC[C@@H](N3CCOCC3)C2)cn1)c1cnccn1` [Example 120] came in with an IC50 of 84.1 nM.

The compound `C[C@H](Nc1ncc(C(=O)N2CCN3C[C@@H](F)C[C@H]3C2)cn1)c1cnccn1` [Example 121] showed an IC50 of 3.95 nM.

In turn, `C[C@H](Nc1ncc(C(=O)N2CCC3(CN(C)C3)C2)cn1)c1cnccn1` [Example 122] registered a half-maximal inhibitory concentration (IC50) of 43.9 nM.

Compound `CN1CC2CN(C(=O)c3cnc(NCc4cnccn4)nc3)CC2C1` (stereo not drawn) [Example 123] displayed an IC50 of 11400 nM.

On to `O=C(c1cnc(NCc2cnccn2)nc1)N1CC[C@@H](N2CCOCC2)C1` [Example 124], for which the half-maximal inhibitory concentration (IC50) amounted to 4620 nM.

For `C[C@H](Nc1ncc(C(=O)N2CCN3CCC[C@H]3C2)cn1)c1cnccn1` [Example 125], it took 3.04 nM to reach half-maximal inhibition (IC50).

`C[C@H](Nc1ncc(C(=O)N2CC3CN(C)CC3C2)cn1)c1cnccn1` (stereo partly drawn) [Example 127]: the concentration for half-maximal inhibition (IC50) is 587 nM.

Compound `O=C(c1cnc(NCc2cnccn2)nc1)N1CCN2CCC[C@@H]2C1` [Example 128] came in with an IC50 of 384 nM.

`O=C(c1cnc(NCc2cnccn2)nc1)N1CCN2CCC[C@H]2C1` [Example 129]: the IC50 came to 65.9 nM.

`O=C(c1cnc(NC2(c3cnccn3)COC2)nc1)N1CCC2(CCOCC2)C1` [Example 132] returned an IC50 of 0.349 nM.

`O=C(c1cnc(NC2(c3cncnc3)COC2)nc1)N1CC2(CCOCC2)C1` [Example 134] displayed an IC50 of 0.504 nM.

For `Cc1nc(NC2(c3cncnc3)CC2)ncc1C(=O)N1CCC2(CCOCC2)C1` [Example 136], the 50% inhibitory concentration (IC50) is 2330 nM.

For the compound `O=C(c1cnc(NC2(c3cnccn3)CCC2)nc1)N1CC2(CCOCC2)C1` [Example 138], the IC50 came out at 0.043 nM.

`Cc1nc(NCc2cnccn2)ncc1C(=O)N1CCC2(CCOCC2)C1` [Example 139] displayed an IC50 above 17600 nM.

Regarding `Cc1ccc([C@@H](C)Nc2ncc(C(=O)N3CCC4(CCOCC4)C3)cn2)cn1` [Example 141], inhibition was half-maximal at 87.3 nM (IC50).

As for `CC(C)(Nc1ncc(C(=O)N2CC3(CCOCC3)C2)cn1)c1cncnc1` [Example 144], the 50% inhibitory concentration (IC50) came out at 0.743 nM.

The compound `C[C@@H](Nc1ncc(C(=O)N2CC3(CCOCC3)C2)cn1)c1cnccn1` [Example 148] came in with an IC50 of 54.5 nM.

On to `C[C@H](Nc1ncc(C(=O)N2CC3(CCOCC3)C2)cn1)c1cncnc1` [Example 151], for which the half-inhibitory concentration (IC50) was found to be 0.955 nM.

In the case of `C[C@@H](Nc1ncc(C(=O)N2CC3(CCOCC3)C2)cn1)c1cncnc1` [Example 152], the concentration for half-maximal inhibition (IC50) was 91.3 nM.

For the compound `C[C@H](Nc1ncc(C(=O)N2CCC3(CCOCC3)C2)cn1)c1ccnnc1` [Example 153], 4.29 nM corresponded to half-maximal inhibition (IC50).

`C[C@@H](Nc1ncc(C(=O)N2CCC3(CCOCC3)C2)cn1)c1ccnnc1` [Example 154] gave an IC50 of 337 nM.

Take `C[C@@H](Nc1ncc(C(=O)N2CCC3(CCOCC3)C2)cn1)c1ccncn1` [Example 156]: it took 838 nM to reach half-maximal inhibition (IC50).

Compound `Cc1ncc(C(C)Nc2ncc(C(=O)N3CCC4(CCOCC4)C3)cn2)cn1` (stereo not drawn) [Example 159] displayed a half-maximal inhibitory concentration (IC50) of 1.29 nM.

`Cc1ncc(C(C)Nc2ncc(C(=O)N3CC4(CCOCC4)C3)cn2)cn1` (stereo not drawn) [Example 160] showed a half-maximal inhibitory concentration (IC50) of 2.84 nM.

Compound `Cc1ccc(C(C)Nc2ncc(C(=O)N3CCC4(CCOCC4)C3)cn2)nc1` (stereo not drawn) [Example 161] gave a concentration for half-maximal inhibition (IC50) of 8.06 nM.

In turn, `Cc1ccc(C(C)Nc2ncc(C(=O)N3CC4(CCOCC4)C3)cn2)cn1` (stereo not drawn) [Example 163] gave a half-inhibitory concentration (IC50) of 1.77 nM.
